Results as given in patent publication US12234211B2, “Cycloolefin substituted heteroaromatic compounds and their use” (HUTCHISON MEDIPHARMA LIMITED, priority 2017, dated 2025).

Legend:
IDH2-R140Q = molecular target: T1, IDH2-R140Q (Homo sapiens, UniProt P48735, R140Q); assay: Fluorescent determination of IDH2-R140Q cell activity (2-HG in U87MGR140Q cells); assay type: cell-based; conditions: 72 hours incubation, read-out: IC50 (2-HG inhibition)
T1 construct: expressed in transfected cells
T1 sequence (P48735 40-452 R140Q): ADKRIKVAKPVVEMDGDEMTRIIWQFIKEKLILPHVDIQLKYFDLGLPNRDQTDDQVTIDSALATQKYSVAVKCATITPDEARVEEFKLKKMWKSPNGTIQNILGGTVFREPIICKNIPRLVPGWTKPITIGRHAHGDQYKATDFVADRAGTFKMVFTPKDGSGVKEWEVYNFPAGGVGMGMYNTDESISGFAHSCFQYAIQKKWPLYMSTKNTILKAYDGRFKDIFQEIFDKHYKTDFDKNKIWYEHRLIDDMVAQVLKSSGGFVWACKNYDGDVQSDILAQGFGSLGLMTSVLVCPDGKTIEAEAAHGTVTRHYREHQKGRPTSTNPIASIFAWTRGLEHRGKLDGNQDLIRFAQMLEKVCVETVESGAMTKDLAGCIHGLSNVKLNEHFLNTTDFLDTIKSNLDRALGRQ
Description: Enzyme reaction solution: 1 mM nicotinamide adenine dinucleotide (NAD), 0.6 ng/μL D-2-hydroxyglutarate dehydrogenase (D2HGDH), 0.8 U/mL lipoamidase dehydrogenase (Diaphorase) and 60 μM Resazurin in 40 mM Tris.HCl pH 8.8 assay buffer.
Standard curve stock solution: The standard of 2-HG sodium salt was serially diluted in serum-free MEM medium to make a standard curve stock solution.
100 μL of U87MGR140Q cells were seeded at a density of 6×10^4/mL per well in a 96-well plate a.
From each well of 96-well plate a, 50 μL of the culture supernatant was transferred to the corresponding well of 96-well plate b; at the same time, 50 μL of standard curve stocking solution was added to other wells of 96-well plate b. Then 10 μl of 360 mM hydrochloric acid was added to all the wells. After shaking and mixing, the plate was placed on ice for 10 minutes, and then 10 μl of 420 mM Tris-base was added. After shaking and mixing, the plate was placed on ice for additional 5 minutes. Then the plate was centrifuged at 2500 rpm for 10 minutes.
After centrifuging, from each well of 96-well plate b, 20 μL of the supernatant was transferred to 96-well plate c. An additional 80 μL of the enzyme reaction solution was added to each well and incubated at 25° C. for 90 minutes.
A standard curve of the fluorescence value vs. the corresponding 2-HG concentration was made, and the 2-HG concentration corresponding to each concentration point of the compound was calculated, then the inhibition ratio was calculated, and the data was analyzed using XLfit5 (ID Business Solutions Limited) software to obtain the IC50 value.
The inhibition ratio was calculated as follows: Inhibition Ratio (IH %)=(1-2-HG concentration of test compound treated cells/2-HG concentration of control cells)×100%.

IDH1-R132H = molecular target: T2, IDH1-R132H (Homo sapiens, UniProt O75874, R132H); assay: Fluorescent determination of IDH1-R132H cell activity (2-HG in U87MGR132H cells); assay type: cell-based; conditions: 2-HG inhibition in U87MGR132H cells transfected with IDH1-R132H mutant plasmid
T2 construct: expressed in transfected cells; host or cells: U87MG cells (U87MGR132H)
T2 sequence (O75874 whole entry R132H): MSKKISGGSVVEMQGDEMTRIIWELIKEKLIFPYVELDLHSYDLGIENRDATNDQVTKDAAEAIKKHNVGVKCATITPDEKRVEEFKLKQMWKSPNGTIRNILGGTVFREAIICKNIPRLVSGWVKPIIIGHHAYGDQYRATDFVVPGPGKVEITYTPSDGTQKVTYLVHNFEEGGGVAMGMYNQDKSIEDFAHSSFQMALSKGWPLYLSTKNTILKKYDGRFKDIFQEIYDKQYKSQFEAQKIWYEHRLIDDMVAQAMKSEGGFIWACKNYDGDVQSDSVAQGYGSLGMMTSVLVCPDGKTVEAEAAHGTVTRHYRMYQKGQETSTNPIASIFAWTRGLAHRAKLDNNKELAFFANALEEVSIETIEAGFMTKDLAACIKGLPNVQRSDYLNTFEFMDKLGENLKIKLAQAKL

Row | SMILES | IC50 (IDH2-R140Q) [nM] | IC50 (IDH1-R132H) [nM]
1 | C[C@@H](Nc1nc(N[C@H](C)C(F)(F)F)nc(C2=C(F)C(O)CCCC2)n1)C(F)(F)F (mixture of isomers) [Compound 21] | 99 | 234
2 | C[C@@H](Nc1nc(NCC2CC2)nc(C2=C(F)C(O)C(F)CC2)n1)C(F)(F)F (single isomer, unassigned) [Compound 225] | 36 | 917
3 | CC(C)(C)ONc1nc(Nc2ccnc(Cl)c2)nc(C2=C(F)C(O)C(F)(F)CC2)n1 (stereo not drawn) [Compound 216] | 82 | 8520
4 | CC(C)(C)ONc1nc(Nc2ccnc(F)c2)nc(C2=C(F)C(O)CCC2)n1 (stereo not drawn) [Compound 73] | 64 | > 10000
5 | CC(C)Nc1nc(NC2CC(F)(F)C2)nc(C2=C(F)C(O)CCC2)n1 (stereo not drawn) [Compound 51] | 125 | 6040
6 | Cc1nccc(Nc2nc(NOC(C)(C)C)nc(C3=C(F)C(O)CCC3)n2)n1 (stereo not drawn) [Compound 205] | 803 | > 10000
7 | CC(C)(O)CNc1nc(Nc2ccn3nccc3c2)nc(C2=C(F)C(O)CCC2)n1 (stereo not drawn) [Compound 67] | 2370 | > 10000
8 | CC(C)Nc1nc(Nc2ccc3ccccc3n2)nc(C2=C(F)C(O)CCC2)n1 (stereo not drawn) [Compound 62] | 1340 | 2700
9 | C[C@@H](Nc1nc(NOC(C)(C)C)nc(C2=C(F)C(O)C(F)(F)CC2)n1)C(F)(F)F (mixture of isomers) [Compound 294] | 425 | 9180
10 | OC1C(F)=C(c2nc(NOCC3CC3)nc(Nc3ccnc(C(F)(F)F)c3)n2)CCC1(F)F (stereo not drawn) [Compound 213] | 38 | > 10000
11 | CC(C)(C)ONc1nc(Nc2ccc3sncc3c2)nc(C2=C(F)C(O)CCC2)n1 (racemic) [Compound 34] | 145 | > 10000
12 | [2H]C1(O)C(F)=C(c2nc(NC3CC3)nc(N[C@H](C)C(F)(F)F)n2)CCC1(F)F (mixture of isomers) [Compound 279] | 170 | 9430
13 | C[C@@H](Nc1nc(N[C@@H]2CCC(F)(F)C2)nc(C2=C(F)C(O)C(F)CC2)n1)C(F)(F)F (single isomer, unassigned) [Compound 233] | 368 | 628
14 | CCCNc1nc(N[C@H](C)C(F)(F)F)nc(C2=C(F)C(O)CCC2)n1 (stereo partly drawn) [Compound 81] | 99 | 3570
15 | CC(C)CNc1nc(N[C@H](C)C(F)(F)F)nc(C2=C(F)C(O)CCC2)n1 (stereo partly drawn) [Compound 78] | 69 | 1410
16 | C[C@@H](Nc1nc(NCC2CC2)nc(C2=C(F)C(O)C(F)(F)CC2)n1)C(F)(F)F (stereo partly drawn) [Compound 234, 3-(4-((Cyclopropylmethyl)amino)-6-(((R)-1,1,1-trifluoropropan-2-yl)amino)-1,3,5-triazin-2-yl)-2,6,6-trifluorocyclohex-2-en-1-ol] | 78 | 1760
17 | CCCNc1nc(N[C@H](C)C(F)(F)F)nc(C2=C(F)C(O)[C@@H](F)CC2)n1 (stereo partly drawn) [Compound 231] | 37 | 1530

More lines, in order of falling IC50 (IDH2-R140Q), values ahead:

Row | IC50 (IDH2-R140Q) [nM] | IC50 (IDH1-R132H) [nM] | SMILES
18 | 2660 | > 10000 | CONc1nc(N[C@H](C)C(F)(F)F)nc(C2=C(F)C(O)C(F)(F)CC2)n1 (mixture of isomers) [Compound 297, 2,6,6-Trifluoro-3-(4-(methoxyamino)-6-(((R)-1,1,1-trifluoropropan-2-yl)amino)-1,3,5-triazin-2-yl)cyclohex-2-en-1-ol]
19 | 1630 | > 10000 | CC(C)Nc1nc(Nc2ccc3c(cnn3C)c2)nc(C2=C(F)C(O)CCC2)n1 (stereo not drawn) [Compound 64]
20 | 984 | > 10000 | C[C@@H](Nc1nc(NCCF)nc(C2=C(F)C(O)CCC2)n1)C(F)(F)F (stereo partly drawn) [Compound 240]
21 | 738 | 9460 | C[C@H](CF)Nc1nc(N[C@H](C)C(F)(F)F)nc(C2=C(F)C(O)CCC2)n1 (mixture of isomers) [Compound 169]
22 | 590 | > 10000 | CC(C)(C)ONc1nc(Nc2cc(C#N)ccn2)nc(C2=C(F)C(O)CCC2)n1 (stereo not drawn) [Compound 60]
23 | 564 | 1510 | C[C@@H](Nc1nc(N[C@H](C)C(F)(F)F)c(F)c(C2=CC(O)CCC2)n1)C(F)(F)F (mixture of isomers) [Compound 207, 3-(5-fluoro-2,6-bis(((R)-1,1,1-trifluoropropan-2-yl)amino)pyrimidin-4-yl)cyclohex-2-en-1-ol]
24 | 553 | 938 | C[C@@H](Nc1nc(N[C@H](C)C(F)(F)F)nc(C2=C(F)C(O)C(Cl)CC2)n1)C(F)(F)F (mixture of isomers) [Compound 99, 3-(4,6-Bis(((R)-1,1,1-trifluoropropan-2-yl)amino)-1,3,5-triazin-2-yl)-6-chloro-2-fluoro-cyclohex-2-en-1-ol]
25 | 373 | 2080 | C[C@@H](Nc1nc(NCC2CC(F)(F)C2)nc(C2=C(F)C(O)CCC2)n1)C(F)(F)F (mixture of isomers) [Compound 13]
26 | 319 | 2240 | C[C@@H](Nc1nc(NC(C)(C)C)nc(C2=CC(O)CCC2)n1)C(F)(F)F (mixture of isomers) [Compound 155]
27 | 296 | 1340 | C[C@@H](Nc1nc(NC2CCCCC2)nc(C2=CC(O)CCC2)n1)C(F)(F)F (mixture of isomers) [Compound 136]
28 | 291 | 495 | CC(Nc1nc(N[C@H](C)C(F)(F)F)nc(C2=C(F)C(O)CCC2)n1)C(C)(F)F (mixture of isomers) [Compound 175]
29 | 259 | 619 | CCC(Nc1nc(N[C@H](C)C(F)(F)F)nc(C2=C(F)C(O)CCC2)n1)C(F)(F)F (mixture of isomers) [Compound 15]
30 | 218 | > 10000 | CC(C)(C)ONc1nc(Nc2cc(C(F)(F)F)ncn2)nc(C2=C(F)C(O)CCC2)n1 (stereo not drawn) [Compound 75]
31 | 197 | 769 | [2H]C1(O)CCCCC(c2nc(NC3CC(F)(F)C3)nc(N[C@H](C)C(F)(F)F)n2)=C1F (mixture of isomers) [Compound 24]
32 | 162 | 809 | CC(C)[C@@H](C)Nc1nc(N[C@H](C)C(F)(F)F)nc(C2=C(F)C(O)CCC2)n1 (mixture of isomers) [Compound 163]
33 | 139 | 7360 | C[C@@H](Nc1nc(NC2CC2)nc(C2=C(F)C(O)C(F)(F)CC2)n1)C(F)(F)F (mixture of isomers) [Compound 238]
34 | 106 | 450 | C[C@@H](Nc1nc(NC2CC(F)(F)C2)nc(C2=C(F)C(O)CCCC2)n1)C(F)(F)F (stereo partly drawn) [Compound 40]
35 | 100 | 2060 | OC1CCCC(c2nc(NCC(F)(F)F)nc(NC3CC(F)(F)C3)n2)=C1F (stereo not drawn) [Compound 241]
36 | 84 | 3280 | [2H]C1(O)C(F)=C(c2nc(NC(C)C)nc(NC3CC(F)(F)C3)n2)CCC1(F)F [Compound 274, 3-(4-((3,3-difluorocyclobutyl)amino)-6-(isopropylamino)-1,3,5-triazin-2-yl)-2,6,6-trifluorocyclohex-2-en-1-D-1-ol]
37 | 81 | 8370 | [2H]C1(O)C(F)=C(c2nc(NOC(C)(C)C)nc(Nc3ccnc(C(F)(F)F)c3)n2)CCC1(F)F (stereo not drawn) [Compound 276]
38 | 62 | 8020 | CC(C)(C)ONc1nc(Nc2ccnc(C(F)(F)F)c2)nc(C2=C(F)C(O)C(F)(F)CC2)n1 (stereo not drawn) [Compound 275]
39 | 59 | 2880 | OC1C(F)=C(c2nc(Nc3ccnc(C(F)(F)F)c3)nc(NC(C3CC3)C3CC3)n2)CCC1(F)F (stereo not drawn) [Compound 220]
40 | 57 | 2960 | [2H]C1([2H])CCC(c2nc(NOC(C)(C)C)nc(Nc3ccnc(C(F)(F)F)c3)n2)=C(F)C1O (stereo not drawn) [Compound 89]
41 | 33 | 43 | C[C@@H](Nc1nc(N[C@H](C)C(F)(F)F)nc(C2=C(F)C(O)C(F)CC2)n1)C(F)(F)F (stereo partly drawn) [Compound 266, 3-(4,6-Bis(((R)-1,1,1-trifluoropropan-2-yl)amino)-1,3,5-triazin-2-yl)-2,6-difluorocyclohex-2-en-1-D-1-ol]
42 | 15 | 1680 | [2H]C([2H])([2H])C([2H])(Nc1nc(Nc2ccnc(C(F)(F)F)c2)nc(C2=C(F)C(O)CCC2)n1)C([2H])([2H])[2H] (stereo not drawn) [Compound 54]
